Among the data in publication PMC2890073 (Immunogenetics, 2010) are IC50 values, retold here.

Where no end group is shown, it is not given here.

One assay deals with HLA-B*0702 (Homo sapiens, UniProt P01889). Kind of assay: HLA-B*0702 peptide binding assay.
The target of a further assay is HLA-B*5301 (Homo sapiens, UniProt P01889, A329T/A93T/A95T/C349S/D201E/D98Y/E176V/E187L/E204Q/E69T/G107R/I218V/K202T/L105A/L119I/N104I/Q94N/R106L/R155S/R180L/S101N/S121R/S35A/S48A/T118I/V127L/V306I/V36M/Y140S/Y91F). Kind of assay: HLA-B*5301 peptide binding assay.
In a further assay the target is HLA-B*3501 (Homo sapiens, UniProt P01889, A329T/A93T/A95T/C349S/D201E/D98Y/E176V/E187L/E204Q/E69T/I218V/K202T/L119I/Q94N/R155S/R180L/S121R/S35A/S48A/T118I/V127L/V306I/V36M/Y140S/Y91F). Kind of assay: HLA-B*3501 peptide binding assay.

On to `CC(C)C[C@H](NC(=O)[C@@H]1CCCN1C(=O)[C@@H](NC(=O)[C@H](CCC(N)=O)NC(=O)[C@@H]1CCCN1C(=O)[C@@H](NC(=O)[C@@H](NC(=O)[C@@H]1CCCN1C(=O)[C@@H](N)Cc1ccccc1)C(C)C)[C@@H](C)O)C(C)C)C(=O)O`, for which, at HLA-B*0702, the IC50 (as a rule, the concentration at which inhibition is half-maximal) stood at 1 nM.
With `CC(C)C[C@H](NC(=O)[C@@H]1CCCN1C(=O)[C@@H](N)Cc1ccc(O)cc1)C(=O)N[C@H](C(=O)N[C@@H](Cc1ccccc1)C(=O)NCC(=O)N[C@@H](Cc1c[nH]c2ccccc12)C(=O)N[C@@H](CS)C(=O)N[C@@H](Cc1ccccc1)C(=O)O)[C@@H](C)O`, the 50% inhibitory concentration (IC50) on HLA-B*5301 stood at 9.5 nM.
As to HPDIVIYQY, the 50% inhibitory concentration (IC50) on HLA-B*3501 is 7.9 nM.
